Patent US9174968B2, “Pyrimidinone compounds for use in the treatment of diseases or conditions mediated by LP-PLA2” (GLAXO GROUP LIMITED, priority 2010, dated 2015)
Where a name gives a salt, the structure may show the parent alone.

Target: T1, Lp-PLA2 from plasma (pooled human plasma) (Homo sapiens, UniProt Q13093)
T1 construct: from tissue; host or cells: pooled human plasma
T1 sequence (Q13093 22-441): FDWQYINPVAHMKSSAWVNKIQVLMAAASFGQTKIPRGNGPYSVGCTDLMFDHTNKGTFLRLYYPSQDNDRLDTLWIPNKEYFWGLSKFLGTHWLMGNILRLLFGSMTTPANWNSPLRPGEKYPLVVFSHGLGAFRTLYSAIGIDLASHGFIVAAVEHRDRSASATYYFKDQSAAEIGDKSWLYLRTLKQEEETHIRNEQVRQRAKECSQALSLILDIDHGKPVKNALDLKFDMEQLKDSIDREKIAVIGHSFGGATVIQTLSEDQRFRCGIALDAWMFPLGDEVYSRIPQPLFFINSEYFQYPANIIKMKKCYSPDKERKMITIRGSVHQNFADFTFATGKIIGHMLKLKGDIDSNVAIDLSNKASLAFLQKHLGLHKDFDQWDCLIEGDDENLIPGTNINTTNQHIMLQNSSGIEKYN
Test: Lp-PLA2 human plasma assay (Thio-PAF assay)
Format: biochemical
Settings: read-out: pIC50 in the thio-PAF assay (converted)
From the text: (3) Lipoprotein-Associated Phospholipase A2 (Lp-PLA2) Human Plasma Assay (Also Referred to as “Thio-PAF Assay”)
The human plasma assay utilizes a thioester analog of PAF (phosphatidylcholine), where hydrolysis yields to the formation of a phospholipid containing a free thiol group. The amount of thiol is quantitated continuously by reacting with CPM (7-diethylamino-3-(4′-maleimidylphenyl)-4-methylcoumarin), a maleimide which increases in fluorescence after Michael addition of thiols. This assay may detect the activity of Lp-PLA2 from plasma, as determined by specific inhibition by Lp-PLA2 inhibitors.
The thio-PAF assay was run as a quenched 15 μL assay. Compounds source plate was prepared by making 1:3 (by volume) serial dilution of the compounds into pure DMSO on 384-well microplate. 0.01 μL of compounds on compound source plate were transferred to 384 well Greiner 784076 (black) low-volume plates by ECHO liquid dispenser. 8 μL pooled human plasma, which was previously aliquoted and frozen, was added. Plates were centrifuged for 10 sec at 500 rpm. After 30 minutes preincubation, 2 μL of substrate (2.5 mM thio-PAF, 3.2 mM NEM (N-ethylmaleimide) [made fresh daily in DMSO], and 32 μM CPM [from a DMSO stock] in assay buffer of 50 mM HEPES, pH7.4, 150 mM NaCl, 1 mM CHAPS was added to 384 well Greiner 784076 (black) low-volume plates by BRAVO liquid handling station. Plates were centrifuged for 10 sec at 500 rpm. Plate was covered to protect from light and incubated for 2 min at room temperature. Reaction was quenched with 5 μL of 5% aqueous trifluoroacetic acid (TFA). Plates were covered to protect from light and incubated for 40 min at room temperature. Plates were read at ex: 380/em: 485 using-Envision microplate reader. PIC50 data, curve and QC analysis was conducted by using XLFit module in Excel.
All exemplified compounds of the present invention were tested in thio-PAF assay or similar assay as described above.

IC50 | SMILES
> 10 µM | O=c1nc(OCCc2ccc(Oc3ccc(Cl)c(C(F)(F)F)c3)cc2)[nH]cc1Cc1c(O)cc(F)cc1F [E19, 2-{[2-(4-{[4-Chloro-3-(trifluoromethyl)phenyl]oxy}phenyl)ethyl]oxy}-5-[(2,4-difluoro-6-hydroxyphenyl)methyl]-4(1H)-pyrimidinone]
> 10 µM | CCc1c[nH]c(OCCc2ccc(Oc3ccc(Cl)c(C(F)(F)F)c3)cc2)nc1=O [E27, 2-{[2-(4-{[4-Chloro-3-(trifluoromethyl)phenyl]oxy}phenyl)ethyl]oxy}-5-ethyl-4(1H)-pyrimidinone]
> 10 µM | O=c1nc(CCc2ccc(Oc3ccc(F)cc3)cc2)[nH]cc1Cc1cncnc1 [E39, 2-(4-(4-fluorophenoxy)phenethyl)-5-(pyrimidin-5-ylmethyl)pyrimidin-4(1H)-one]
> 10 µM | Cn1cc(Cc2c[nH]c(CCc3ccc(Oc4cccc(C(F)(F)F)c4)cc3)nc2=O)cn1 [E50, 5-((1-methyl-1H-pyrazol-4-yl)methyl)-2-(4-(3-(trifluoromethyl)phenoxy)phenethyl)pyrimidin-4(1H)-one]
> 10 µM | COc1ncc(Cc2c[nH]c(SCc3ccc(Oc4ccc(F)cc4)cc3)nc2=O)cn1 [E52, 2-((4-(4-fluorophenoxy)benzyl)thio)-5-((2-methoxypyrimidin-5-yl)methyl)pyrimidin-4(1H)-one]
> 10 µM | N#Cc1ccc(Cc2c[nH]c(SCc3ccc(Oc4ccc(Cl)c(C(F)(F)F)c4)cc3)nc2=O)cc1 [E62, 4-[(2-{[(4-{[4-chloro-3-(trifluoromethyl)phenyl]oxy}phenyl)methyl]thio}-4-oxo-1,4-dihydro-5-pyrimidinyl)methyl]benzonitrile]
> 10 µM | CCc1c[nH]c(SCc2ccc(Oc3ccc(Cl)c(C(F)(F)F)c3)cc2)nc1=O [E63, 2-{[(4-{[4-chloro-3-(trifluoromethyl)phenyl]oxy}phenyl)methyl]thio}-5-ethyl-4(1H)-pyrimidinone]
> 10 µM | Cn1cc(Cc2c[nH]c(SCc3ccc(Oc4ccc(Cl)c(C(F)(F)F)c4)c(C#N)c3)nc2=O)c2ccccc21 [E81, 2-(4-chloro-3-(trifluoromethyl)phenoxy)-5-(((5-((1-methyl-1H-indol-3-yl)methyl)-4-oxo-1,4-dihydropyrimidin-2-yl)thio)methyl)benzonitrile]
> 10 µM | CCc1c[nH]c(SCc2ccc(Oc3ccc(Cl)c(C(F)(F)F)c3)c(C#N)c2)nc1=O [E83, 2-{[4-chloro-3-(trifluoromethyl)phenyl]oxy}-5-{[(5-ethyl-4-oxo-1,4-dihydro-2-pyrimidinyl)thio]methyl}benzonitrile]
> 10 µM | COc1ncc(Cc2c[nH]c(SCc3ccc(Oc4ccc(F)c(C(F)(F)F)c4)c(C#N)c3)nc2=O)cn1 [E89, 2-{[4-fluoro-3-(trifluoromethyl)phenyl]oxy}-5-{[(5-{[2-(methyloxy)-5-pyrimidinyl]methyl}-4-oxo-1,4-dihydro-2-pyrimidinyl)thio]methyl}benzonitrile]
> 10 µM | CCc1c[nH]c(SCc2ccc(Oc3cccc(C(F)(F)F)c3)c(C#N)c2)nc1=O [E98, 5-{[(5-ethyl-4-oxo-1,4-dihydro-2-pyrimidinyl)thio]methyl}-2-{[3-(trifluoromethyl)phenyl]oxy}benzonitrile]
> 10 µM | N#Cc1ccc(Cc2c[nH]c(SCCc3ccc(Oc4ccc(Cl)c(C(F)(F)F)c4)cc3)nc2=O)cc1 [E114, 4-[(2-{[2-(4-{[4-chloro-3-(trifluoromethyl)phenyl]oxy}phenyl)ethyl]thio}-4-oxo-1,4-dihydro-5-pyrimidinyl)methyl]benzonitrile]
> 10 µM | CCc1c[nH]c(OCCc2cc(F)c(Oc3ccc(Cl)c(C(F)(F)F)c3)c(F)c2)nc1=O [E125, 2-{[2-(4-{[4-chloro-3-(trifluoromethyl)phenyl]oxy}-3,5-difluorophenyl)ethyl]oxy}-5-ethyl-4(1H)-pyrimidinone]
> 10 µM | O=C(O)Cc1c[nH]c(OCCc2ccc(Oc3ccc(Cl)c(C(F)(F)F)c3)cc2)nc1=O [E131, (2-{[2-(4-{[4-chloro-3-(trifluoromethyl)phenyl]oxy}phenyl)ethyl]oxy}-4-oxo-1,4-dihydro-5-pyrimidinyl)acetic acid]
> 10 µM | CCc1c[nH]c(OCCc2ccc(Oc3ccc(C(F)(F)F)nc3)cc2)nc1=O [E140, 5-ethyl-2-{[2-(4-{[6-(trifluoromethyl)-3-pyridinyl]oxy}phenyl)ethyl]oxy}-4(1H)-pyrimidinone]
> 10 µM | CCc1cn(C)c(OCCc2ccc(Oc3ccc(C(F)(F)F)nc3)cc2)nc1=O [E142, 5-ethyl-1-methyl-2-{[2-(4-{[6-(trifluoromethyl)-3-pyridinyl]oxy}phenyl)ethyl]oxy}-4(1H)-pyrimidinone]
> 10 µM | CCc1cn(C)c(OCCc2ccc(Oc3cnc(C(F)(F)F)nc3)cc2)nc1=O [E144, 5-ethyl-1-methyl-2-(4-((2-(trifluoromethyl)pyrimidin-5-yl)oxy)phenethoxy)pyrimidin-4(1H)-one, trifluoroacetic acid salt]
> 10 µM | COc1ncc(Cc2c[nH]c(OCCc3ccc(Oc4ncc(Cl)cn4)cc3)nc2=O)cn1 [E145, 2-(4-((5-chloropyrimidin-2-yl)oxy)phenethoxy)-5-((2-methoxypyrimidin-5-yl)methyl)pyrimidin-4(1H)-one, Trifluoroacetic acid salt]
> 10 µM | Cc1cccc(Oc2ccc(CCOc3nc(=O)c(Cc4cnn(C)c4)c[nH]3)cc2)n1 [E158, 5-[(1-methyl-1H-pyrazol-4-yl)methyl]-2-[(2-{4-[(6-methyl-2-pyridinyl)oxy]phenyl}ethyl)oxy]-4(1H)-pyrimidinone]
> 10 µM | CCc1c[nH]c(OCCc2ccc(Oc3cccc(C)n3)cc2)nc1=O [E160, 5-ethyl-2-[(2-{4-[(6-methyl-2-pyridinyl)oxy]phenyl}ethyl)oxy]-4(1H)-pyrimidinone]
> 10 µM | CCc1c[nH]c(OCCc2ccc(Oc3cc(Cl)cc(C(F)(F)F)c3)cc2)nc1=O [E163, 2-{[2-(4-{[3-chloro-5-(trifluoromethyl)phenyl]oxy}phenyl)ethyl]oxy}-5-ethyl-4(1H)-pyrimidinone]
> 10 µM | CCc1c[nH]c(OCCc2cc(F)c(Oc3cnc(C(F)(F)F)nc3)c(F)c2)nc1=O [E170, 2-(3,5-difluoro-4-((2-(trifluoromethyl)pyrimidin-5-yl)oxy)phenethoxy)-5-ethylpyrimidin-4(1H)-one]
> 10 µM | CCc1cn(C)c(OCCc2cc(F)c(Oc3cnc(C(F)(F)F)nc3)c(F)c2)nc1=O [E171, 2-(3,5-difluoro-4-((2-(trifluoromethyl)pyrimidin-5-yl)oxy)phenethoxy)-5-ethyl-1-methylpyrimidin-4(1H)-one]
> 10 µM | CCc1c[nH]c(OCCc2ccc(Oc3ccc(Cl)c(C(F)(F)F)c3)c(F)c2)nc1=O [E173, 2-{[2-(4-{[4-chloro-3-(trifluoromethyl)phenyl]oxy}-3-fluorophenyl)ethyl]oxy}-5-ethyl-4(1H)-pyrimidinone]
> 10 µM | CCc1c[nH]c(OCCc2ccc(Oc3ccc(Cl)c(OC(F)(F)F)c3)cc2)nc1=O [E179]
> 10 µM | CCc1c[nH]c(OCCc2ccc(Oc3ccc(Cl)c(C)c3)cc2)nc1=O [E183, 2-[(2-{4-[(4-chloro-3-methylphenyl)oxy]phenyl}ethyl)oxy]-5-ethyl-4(1H)-pyrimidinone]
> 10 µM | CCc1cn(C)c(OCCc2ccc(Oc3ccc(Cl)c(C)c3)cc2)nc1=O [E184, 2-[(2-{4-[(4-chloro-3-methylphenyl)oxy]phenyl}ethyl)oxy]-5-ethyl-1-methyl-4(1H)-pyrimidinone]
> 10 µM | CN(CCc1ccc(Oc2ccc(F)cc2)cc1)c1nc(=O)c(Cc2cncnc2)c[nH]1 [E192, 2-{2-[4-(4-fluoro-phenoxy)phenyl]-ethyl-methyl-amino}-5-pyrimidin-5-ylmethyl-1H-pyrimidin-4-one]
> 10 µM | Cc1c[nH]c(NCCc2ccc(Oc3ccc(Cl)c(C(F)(F)F)c3)cc2)nc1=O [E198, 2-{2-[4-(4-Chloro-3-trifluoromethyl-phenoxy)-phenyl]-ethylamino}-5-methyl-1H-pyrimidin-4-one]
> 10 µM | O=c1nc(NCCc2ccc(Oc3ccc(Cl)c(C(F)(F)F)c3)cc2)[nH]cc1CN1CCCC1 [E215, 2-{2-[4-(4-chloro-3-trifluoromethyl-phenoxy)-phenyl]-ethylamino}-5-pyrrolidin-1-ylmethyl-1H-pyrimidin-4-one]
